Experimental data from paper PMC10728895, “Stapled Phd Peptides Inhibit Doc Toxin Induced Growth Arrest in Salmonella” (ACS Chemical Biology, 2023).
Positions of bridges follow the written chain, without caps; N, C: chain ends. Non-standard residues stand in square brackets, D forms with d. Residues, ends and D or L forms follow the SMILES beside them. S5 = C=CCCC[C@](C)(N)C(=O)O; Nle = CCCC[C@H](N)C(=O)O

test system: DocSTm toxin; conditions: DocSTm 5 μM, peptide 50 μM, SYPRO Orange 3×, 20 mM K2HPO4, 50 mM (NH4)2SO4, pH 8.0; average Tm with peptide minus average Tm of free DocSTm; mean ± SD
Procedure: The thermal shift assay was performed using a Mx3005P qPCR System (Agilent) collecting fluorescence data with a temperature ramp of 25 to 95 °C. Samples were prepared in a buffer containing 20 mM K2HPO4 and 50 mM (NH4)2SO4 at pH 8.0, with a final concentration of recombinant Doc protein at 5 μM and Phd peptides at 50 μM. SYPRO Orange dye (Sigma-Aldrich, 5000X stock in DMSO) was used to monitor protein denaturation in a final concentration of 3×. The final sample volume was 20 μL. Each condition was prepared in triplicate in each independent experiment. The melting curves were plotted using GraphPad Prism 9 (GraphPad Software, USA), and the melting temperatures were obtained by fitting the sigmoidal section of the curves to a Boltzmann sigmoid function. For the calculation of thermal shifts ΔTm, the average melting temperature of free DocSTm toxin as determined in the respective peptide measurement cycles was subtracted from the average melting temperature of DocSTm in the presence of the peptide (Table S3).

Row | SMILES | ΔTm (thermal shift) of DocSTm in the presence of peptide
1 | CCCC[C@H](NC(=O)[C@H](Cc1c[nH]c2ccccc12)NC(C)=O)C(=O)N[C@@H](CCCNC(=N)N)C(=O)N[C@@H](CCCNC(=N)N)C(=O)N[C@@H](CCC(=O)O)C(=O)N[C@@H](Cc1ccccc1)C(=O)N[C@@H](CCCNC(=N)N)C(=O)N[C@@H](CCCNC(=N)N)C(=O)N[C@H](C(=O)N[C@@H](CCCC)C(=O)N[C@@H](CCCNC(=N)N)C(=O)N[C@H](C(=O)N[C@@H](Cc1c[nH]cn1)C(=O)NCC(=O)N[C@@H](CC(N)=O)C(=O)N[C@@H](CCC(=O)O)C(=O)N[C@@H](CC(C)C)C(=O)N[C@@H](CCCNC(=N)N)C(=O)N[C@@H](CCC(=O)O)C(=O)N[C@@H](CC(C)C)C(=O)N[C@@H](C)C(=O)N[C@@H](CC(=O)O)C(=O)N[C@@H](CCCCN)C(=O)O)C(C)C)[C@@H](C)CC [Peptide 14] (Ac-W[Nle]RREFRRI[Nle]RVHGNELRELADK-OH) | 11–13 °C
2 | CCCC[C@H](NC(=O)[C@H](Cc1c[nH]c2ccccc12)NC(C)=O)C(=O)N[C@@H](CCCNC(=N)N)C(=O)N[C@@H](CCCNC(=N)N)C(=O)N[C@@H](CCC(=O)O)C(=O)N[C@@H](Cc1ccccc1)C(=O)N[C@@H](CCCNC(=N)N)C(=O)N[C@@H](CCCNC(=N)N)C(=O)N[C@H](C(=O)N[C@@H](CCCC)C(=O)N[C@@H](CCCNC(=N)N)C(=O)N[C@H](C(=O)N[C@@H](Cc1c[nH]cn1)C(=O)NCC(=O)N[C@@H](CCCNC(=N)N)C(=O)N[C@@H](CCC(=O)O)C(=O)N[C@@H](CC(C)C)C(=O)N[C@@H](CCCNC(=N)N)C(=O)N[C@@H](CCC(=O)O)C(=O)N[C@@H](CC(C)C)C(=O)N[C@@H](C)C(=O)N[C@@H](CC(=O)O)C(=O)N[C@@H](CCCCN)C(=O)O)C(C)C)[C@@H](C)CC [Peptide 15] (Ac-W[Nle]RREFRRI[Nle]RVHGRELRELADK-OH) | 11–13 °C

same assay, conditions: DocSTm 5 μM, peptide 50 μM, pH 8.0; average ± SD, replicates 3-48 (Table S3)

Row | SMILES | Average Tm of DocSTm in the presence of peptide [°C]
3 | CCCC[C@H](NC(=O)[C@H](Cc1c[nH]c2ccccc12)NC(C)=O)C(=O)N[C@@H](CC(=O)O)C(=O)N[C@@H](CC(=O)O)C(=O)N[C@@H](CCC(=O)O)C(=O)N[C@@H](Cc1ccccc1)C(=O)N[C@@H](C)C(=O)N[C@@H](C)C(=O)N[C@H](C(=O)N[C@@H](CCCC)C(=O)N[C@@H](C)C(=O)N[C@H](C(=O)N[C@@H](Cc1c[nH]cn1)C(=O)NCC(=O)N[C@@H](CC(N)=O)C(=O)N[C@@H](CCC(=O)O)C(=O)N[C@@H](CC(C)C)C(=O)N[C@@H](CCCNC(=N)N)C(=O)N[C@@H](CCC(=O)O)C(=O)N[C@@H](CC(C)C)C(=O)N[C@@H](C)C(=O)N[C@@H](CCCNC(=N)N)C(=O)N[C@@H](CCCCN)C(=O)O)C(C)C)[C@@H](C)CC [Peptide 13] (Ac-W[Nle]DDEFAAI[Nle]AVHGNELRELARK-OH) | 72.7 ± 0.4
4 | CCCC[C@H](NC(=O)[C@H](Cc1c[nH]c2ccccc12)NC(C)=O)C(=O)N[C@@H](CCCNC(=N)N)C(=O)N[C@@H](CCCNC(=N)N)C(=O)N[C@@H](CCC(=O)O)C(=O)N[C@@H](Cc1ccccc1)C(=O)N[C@@H](CCCNC(=N)N)C(=O)N[C@@H](CCCNC(=N)N)C(=O)N[C@H](C(=O)N[C@@H](CCCC)C(=O)N[C@@H](CCCNC(=N)N)C(=O)N[C@H](C(=O)N[C@@H](Cc1c[nH]cn1)C(=O)NCC(=O)N[C@@H](CC(N)=O)C(=O)N[C@@H](CCC(=O)O)C(=O)N[C@@H](CC(C)C)C(=O)N[C@@H](CCCNC(=N)N)C(=O)N[C@@H](CCC(=O)O)C(=O)N[C@@H](CC(C)C)C(=O)N[C@@H](C)C(=O)N[C@@H](CC(=O)O)C(=O)N[C@@H](CCCCN)C(=O)O)C(C)C)[C@@H](C)CC [Peptide 14] (Ac-W[Nle]RREFRRI[Nle]RVHGNELRELADK-OH) | 56.0 ± 0.1
5 | CCCC[C@H](NC(=O)[C@H](Cc1c[nH]c2ccccc12)NC(C)=O)C(=O)N[C@@H](CCCNC(=N)N)C(=O)N[C@@H](CCCNC(=N)N)C(=O)N[C@@H](CCC(=O)O)C(=O)N[C@@H](Cc1ccccc1)C(=O)N[C@@H](CCCNC(=N)N)C(=O)N[C@@H](CCCNC(=N)N)C(=O)N[C@H](C(=O)N[C@@H](CCCC)C(=O)N[C@@H](CCCNC(=N)N)C(=O)N[C@H](C(=O)N[C@@H](Cc1c[nH]cn1)C(=O)NCC(=O)N[C@@H](CCCNC(=N)N)C(=O)N[C@@H](CCC(=O)O)C(=O)N[C@@H](CC(C)C)C(=O)N[C@@H](CCCNC(=N)N)C(=O)N[C@@H](CCC(=O)O)C(=O)N[C@@H](CC(C)C)C(=O)N[C@@H](C)C(=O)N[C@@H](CC(=O)O)C(=O)N[C@@H](CCCCN)C(=O)O)C(C)C)[C@@H](C)CC [Peptide 15] (Ac-W[Nle]RREFRRI[Nle]RVHGRELRELADK-OH) | 57.8 ± 0.7
6 | CCCC[C@H](NC(=O)[C@H](Cc1c[nH]c2ccccc12)NC(C)=O)C(=O)N[C@@H](CCCNC(=N)N)C(=O)N[C@@H](CC(N)=O)C(=O)N[C@@H](CCC(N)=O)C(=O)N[C@@H](Cc1ccccc1)C(=O)N[C@@H](C)C(=O)N[C@@H](C)C(=O)N[C@H](C(=O)N[C@@H](CCCC)C(=O)N[C@@H](CCCNC(=N)N)C(=O)N[C@H](C(=O)N[C@@H](Cc1c[nH]cn1)C(=O)NCC(=O)N[C@@H](CC(N)=O)C(=O)N[C@@H](CCC(N)=O)C(=O)N[C@@H](CC(C)C)C(=O)N[C@@H](CCCNC(=N)N)C(=O)N[C@@H](CCC(=O)O)C(=O)N[C@@H](CC(C)C)C(=O)N[C@@H](C)C(=O)N[C@@H](CC(N)=O)C(=O)N[C@@H](CCCCN)C(=O)O)C(C)C)[C@@H](C)CC [Peptide 22] (Ac-W[Nle]RNQFAAI[Nle]RVHGNQLRELANK-OH) | 54.7 ± 3.1
7 | CCCC[C@H](NC(=O)[C@H](Cc1c[nH]c2ccccc12)NC(C)=O)C(=O)N[C@@H](CCCNC(=N)N)C(=O)N[C@@H](CC(N)=O)C(=O)N[C@@H](CCC(N)=O)C(=O)N[C@@H](Cc1ccccc1)C(=O)N[C@@H](C)C(=O)N[C@@H](C)C(=O)N[C@H](C(=O)N[C@@H](CCCC)C(=O)N[C@@H](CCCNC(=N)N)C(=O)N[C@H](C(=O)N[C@@H](Cc1c[nH]cn1)C(=O)NCC(=O)N[C@@]1(C)CCCC=CCCC[C@@](C)(C(=O)N[C@@H](CC(C)C)C(=O)N[C@@H](C)C(=O)N[C@@H](CC(N)=O)C(=O)N[C@@H](CCCCN)C(=O)O)NC(=O)[C@H](CCCNC(=N)N)NC(=O)[C@H](CC(C)C)NC(=O)[C@H](CCC(N)=O)NC1=O)C(C)C)[C@@H](C)CC [Peptide 23] (Ac-W[Nle]RNQFAAI[Nle]RVHG[S5]QLR[S5]LANK-OH; staple 15-19) | 57.5 ± 0.9
8 | CCCC[C@H](NC(=O)[C@H](Cc1c[nH]c2ccccc12)NC(C)=O)C(=O)N[C@@H](CCCNC(=N)N)C(=O)N[C@@H](CC(N)=O)C(=O)N[C@@H](CCC(N)=O)C(=O)N[C@@H](Cc1ccccc1)C(=O)N[C@@H](CCCNC(=N)N)C(=O)N[C@@H](C)C(=O)N[C@H](C(=O)N[C@@H](CCCC)C(=O)N[C@@H](CCCNC(=N)N)C(=O)N[C@H](C(=O)N[C@@H](Cc1c[nH]cn1)C(=O)NCC(=O)N[C@@H](CC(N)=O)C(=O)N[C@@H](CCC(N)=O)C(=O)N[C@@H](CC(C)C)C(=O)N[C@@H](CCCNC(=N)N)C(=O)N[C@@H](CCC(=O)O)C(=O)N[C@@H](CC(C)C)C(=O)N[C@@H](C)C(=O)N[C@@H](CC(N)=O)C(=O)N[C@@H](CCCCN)C(=O)O)C(C)C)[C@@H](C)CC [Peptide 24] (Ac-W[Nle]RNQFRAI[Nle]RVHGNQLRELANK-OH) | 54.3 ± 1.6
9 | CCCC[C@H](NC(=O)[C@H](Cc1c[nH]c2ccccc12)NC(C)=O)C(=O)N[C@@H](CCCNC(=N)N)C(=O)N[C@@H](CC(N)=O)C(=O)N[C@@H](CCC(N)=O)C(=O)N[C@@H](Cc1ccccc1)C(=O)N[C@@H](CCCNC(=N)N)C(=O)N[C@@H](C)C(=O)N[C@H](C(=O)N[C@@H](CCCC)C(=O)N[C@@H](CCCNC(=N)N)C(=O)N[C@H](C(=O)N[C@@H](Cc1c[nH]cn1)C(=O)NCC(=O)N[C@@]1(C)CCCC=CCCC[C@@](C)(C(=O)N[C@@H](CC(C)C)C(=O)N[C@@H](C)C(=O)N[C@@H](CC(N)=O)C(=O)N[C@@H](CCCCN)C(=O)O)NC(=O)[C@H](CCCNC(=N)N)NC(=O)[C@H](CC(C)C)NC(=O)[C@H](CCC(N)=O)NC1=O)C(C)C)[C@@H](C)CC [Peptide 25] (Ac-W[Nle]RNQFRAI[Nle]RVHG[S5]QLR[S5]LANK-OH; staple 15-19) | 56.4 ± 3.0
10 | CCCC[C@H](NC(=O)[C@H](Cc1c[nH]c2ccccc12)NC(C)=O)C(=O)N[C@@H](CCCNC(=N)N)C(=O)N[C@@H](CC(N)=O)C(=O)N[C@@H](CCC(=O)O)C(=O)N[C@@H](Cc1ccccc1)C(=O)N[C@@H](C)C(=O)N[C@@H](C)C(=O)N[C@H](C(=O)N[C@@H](CCCC)C(=O)N[C@@H](CCCNC(=N)N)C(=O)N[C@H](C(=O)N[C@@H](Cc1c[nH]cn1)C(=O)NCC(=O)N[C@@H](CC(N)=O)C(=O)N[C@@H](CCC(N)=O)C(=O)N[C@@H](CC(C)C)C(=O)N[C@@H](CCCNC(=N)N)C(=O)N[C@@H](CCC(=O)O)C(=O)N[C@@H](CC(C)C)C(=O)N[C@@H](C)C(=O)N[C@@H](CC(N)=O)C(=O)N[C@@H](CCCCN)C(=O)O)C(C)C)[C@@H](C)CC [Peptide 26] (Ac-W[Nle]RNEFAAI[Nle]RVHGNQLRELANK-OH) | 62.9 ± 0.3
11 | CCCC[C@H](NC(=O)[C@H](Cc1c[nH]c2ccccc12)NC(C)=O)C(=O)N[C@@H](CCCNC(=N)N)C(=O)N[C@@H](CC(N)=O)C(=O)N[C@@H](CCC(=O)O)C(=O)N[C@@H](Cc1ccccc1)C(=O)N[C@@H](CCCNC(=N)N)C(=O)N[C@@H](C)C(=O)N[C@H](C(=O)N[C@@H](CCCC)C(=O)N[C@@H](CCCNC(=N)N)C(=O)N[C@H](C(=O)N[C@@H](Cc1c[nH]cn1)C(=O)NCC(=O)N[C@@H](CC(N)=O)C(=O)N[C@@H](CCC(N)=O)C(=O)N[C@@H](CC(C)C)C(=O)N[C@@H](CCCNC(=N)N)C(=O)N[C@@H](CCC(=O)O)C(=O)N[C@@H](CC(C)C)C(=O)N[C@@H](C)C(=O)N[C@@H](CC(N)=O)C(=O)N[C@@H](CCCCN)C(=O)O)C(C)C)[C@@H](C)CC [Peptide 28] (Ac-W[Nle]RNEFRAI[Nle]RVHGNQLRELANK-OH) | 62.1 ± 0.2
12 | CCCC[C@H](NC(=O)[C@H](Cc1c[nH]c2ccccc12)NC(C)=O)C(=O)N[C@@]1(C)CCCC=CCCC[C@@](C)(C(=O)N[C@@H](C)C(=O)N[C@H](C(=O)N[C@@H](CCCC)C(=O)N[C@@H](C)C(=O)N[C@H](C(=O)N[C@@H](Cc2c[nH]cn2)C(=O)NCC(=O)N[C@@H](CCCNC(=N)N)C(=O)N[C@@H](CCC(N)=O)C(=O)N[C@@H](CC(C)C)C(=O)N[C@@H](CCCNC(=N)N)C(=O)N[C@@H](CCCNC(=N)N)C(=O)N[C@@H](CC(C)C)C(=O)N[C@@H](C)C(=O)N[C@@H](CCCNC(=N)N)C(=O)N[C@@H](CCCCN)C(=O)O)C(C)C)[C@@H](C)CC)NC(=O)[C@H](Cc2ccccc2)NC(=O)[C@H](CCC(=O)O)NC(=O)[C@H](CC(N)=O)NC1=O [Peptide 34] (Ac-W[Nle][S5]NEF[S5]AI[Nle]AVHGRQLRRLARK-OH; staple 3-7) | 58.9 ± 1.1
